In the test the target is Vanilloid 1 (TRPV1) receptor channel (Homo sapiens, UniProt Q8NER1). Kind of test: TRPV1 functional assay. The format is biochemical. The following applies: range 9-13%, n = 2. From the text: Rimonabant also binds weakly to the Vanilloid 1 (TRPV1) receptor channel. […] CE-178253 was not evaluated against TRPM8. Rimonabant has been reported to bind to TRPM8 [21].

We go through one compound from PMC2933614, “Quantitative in vitro and in vivo pharmacological profile of CE-178253, a potent and selective cannabinoid type 1 (CB1) Receptor Antagonist” (BMC Pharmacology, 2010).

Structures are written as SMILES.

Vanilloid 1 (TRPV1) receptor channel, sequence (Q8NER1 whole entry, species assumed): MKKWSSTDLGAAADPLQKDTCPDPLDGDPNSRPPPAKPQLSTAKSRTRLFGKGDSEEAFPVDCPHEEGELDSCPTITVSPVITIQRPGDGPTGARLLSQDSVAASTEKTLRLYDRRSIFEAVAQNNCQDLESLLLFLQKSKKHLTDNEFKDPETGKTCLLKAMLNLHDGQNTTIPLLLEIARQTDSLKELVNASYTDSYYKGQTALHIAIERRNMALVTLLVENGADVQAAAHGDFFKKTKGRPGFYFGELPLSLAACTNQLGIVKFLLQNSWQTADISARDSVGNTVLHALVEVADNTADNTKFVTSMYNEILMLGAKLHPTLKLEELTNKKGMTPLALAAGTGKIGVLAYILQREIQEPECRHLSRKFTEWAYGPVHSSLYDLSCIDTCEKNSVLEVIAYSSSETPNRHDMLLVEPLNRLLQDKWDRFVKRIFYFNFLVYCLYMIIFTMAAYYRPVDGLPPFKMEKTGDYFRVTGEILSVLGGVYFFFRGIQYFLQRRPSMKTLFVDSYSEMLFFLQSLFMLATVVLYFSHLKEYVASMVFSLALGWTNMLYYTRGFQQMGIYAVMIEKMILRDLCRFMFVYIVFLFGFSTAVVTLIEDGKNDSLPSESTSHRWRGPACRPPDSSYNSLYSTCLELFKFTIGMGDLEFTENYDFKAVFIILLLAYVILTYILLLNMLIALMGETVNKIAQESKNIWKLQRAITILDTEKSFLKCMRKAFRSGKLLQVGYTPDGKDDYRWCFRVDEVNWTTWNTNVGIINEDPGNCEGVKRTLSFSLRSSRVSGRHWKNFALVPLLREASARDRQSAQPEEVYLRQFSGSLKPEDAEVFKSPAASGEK

`CCNC1(C(N)=O)CN(c2nc(C)nc3c(-c4ccc(Cl)cc4)c(-c4ccccc4Cl)nn23)C1` [CE-178253]: 10 µM produced 11% inhibition.
